Reference: PubChem BioAssay AID1259407 (Chemical Carcinogenesis Research Information System (CCRIS), 2018)
Calls of active or inactive are those of the source. The rule behind the calls is not given here.

Test system: CCRIS mutagenicity, Ames/micronucleus/aberration tests
Test: CCRIS mutagenicity studies

## C=CC(=O)OCC(CC)(COC(=O)C=C)COC(=O)C=C
End Point: In vivo micronucleus, Test System: Peripheral blood normochromatic erythrocytes, Species: Mouse, Strain/Sex: B6C3F1/Female, Route: Dermal
  mutagenic call: inactive; negative
End Point: In vivo micronucleus, Test System: Peripheral blood normochromatic erythrocytes, Species: Mouse, Strain/Sex: B6C3F1/Male, Route: Dermal
  mutagenic call: inactive; negative
End Point: In vivo micronucleus, Test System: Peripheral blood normochromatic erythrocytes, Species: Mouse, Strain/Sex: FVB.N/TgN (v-Ha-ras) Tg.AC hemizygous/Female, Route: Dermal
  mutagenic call: inactive; negative, purity 80%
End Point: In vivo micronucleus, Test System: Peripheral blood normochromatic erythrocytes, Species: Mouse, Strain/Sex: FVB.N/TgN (v-Ha-ras) Tg.AC hemizygous/Male, Route: Dermal
  mutagenic call: inactive; negative
Test System: AMES SALMONELLA TYPHIMURIUM, Strain/Indicator: TA98, Metabolic Activation: HAMSTER, LIVER, S-9, AROCLOR 1254, Method: STANDARD PLATE
  mutagenic call: inactive; negative
Test System: AMES SALMONELLA TYPHIMURIUM, Strain/Indicator: TA98, Metabolic Activation: NONE, Method: STANDARD PLATE
  mutagenic call: inactive; negative
Test System: AMES SALMONELLA TYPHIMURIUM, Strain/Indicator: TA98, Metabolic Activation: RAT, LIVER, S-9, AROCLOR 1254, Method: STANDARD PLATE
  mutagenic call: inactive; negative
Test System: AMES SALMONELLA TYPHIMURIUM, Strain/Indicator: TA100, Metabolic Activation: HAMSTER, LIVER, S-9, AROCLOR 1254, Method: STANDARD PLATE
  mutagenic call: inactive; negative
Test System: AMES SALMONELLA TYPHIMURIUM, Strain/Indicator: TA100, Metabolic Activation: NONE, Method: STANDARD PLATE
  mutagenic call: inactive; negative
Test System: AMES SALMONELLA TYPHIMURIUM, Strain/Indicator: TA100, Metabolic Activation: RAT, LIVER, S-9, AROCLOR 1254, Method: STANDARD PLATE
  mutagenic call: inactive; negative
Test System: AMES SALMONELLA TYPHIMURIUM, Strain/Indicator: TA1535, Metabolic Activation: HAMSTER, LIVER, S-9, AROCLOR 1254 (5-20%), Method: STANDARD PLATE
  mutagenic call: active; positive
Test System: AMES SALMONELLA TYPHIMURIUM, Strain/Indicator: TA1535, Metabolic Activation: HAMSTER, LIVER, S-9, AROCLOR 1254, Method: STANDARD PLATE
  mutagenic call: active; positive
Test System: AMES SALMONELLA TYPHIMURIUM, Strain/Indicator: TA1535, Metabolic Activation: NONE, Method: STANDARD PLATE
  mutagenic call: inactive; negative
Test System: AMES SALMONELLA TYPHIMURIUM, Strain/Indicator: TA1537, Metabolic Activation: HAMSTER, LIVER, S-9, AROCLOR 1254, Method: STANDARD PLATE
  mutagenic call: inactive; negative
Test System: AMES SALMONELLA TYPHIMURIUM, Strain/Indicator: TA1537, Metabolic Activation: NONE, Method: STANDARD PLATE
  mutagenic call: inactive; negative
Test System: AMES SALMONELLA TYPHIMURIUM, Strain/Indicator: TA1537, Metabolic Activation: RAT, LIVER, S-9, AROCLOR 1254, Method: STANDARD PLATE
  mutagenic call: inactive; negative
Test System: CHINESE HAMSTER OVARY, Strain/Indicator: CHO-K1-BH4 (HGPRT)/6-THIOGUANINE, Metabolic Activation: NONE, Method: SUSPENSION/PLATE
  mutagenic call: inactive; negative
Test System: CHINESE HAMSTER OVARY, Strain/Indicator: CHO-K1-BH4 (HGPRT), Metabolic Activation: NONE
  mutagenic call: active; positive
Test System: CHINESE HAMSTER OVARY, Strain/Indicator: CHO-K1-BH4 (HGPRT), Metabolic Activation: NONE, Method: MONOLAYER
  mutagenic call: inactive; negative
Test System: CHINESE HAMSTER OVARY, Strain/Indicator: CHO-K1-BH4 (HGPRT), Metabolic Activation: NONE, Method: SUSPENSION/PLATE
  mutagenic call: active; positive
Test System: MOUSE LYMPHOMA, Strain/Indicator: L5178Y (TK+/TK-), Metabolic Activation: RAT, LIVER, S-9, AROCLOR 1254, Method: SUSPENSION/PLATE
  mutagenic call: inactive; negative
Test System: Mouse lymphoma, Strain/Indicator: L5178Y (tk+/tk-), Metabolic Activation: None, Method: Suspension/plate
  mutagenic call: active; positive
Test System: Mouse lymphoma, Strain/Indicator: L5178Y (tk+/tk-), Metabolic Activation: Rat, Liver, S-9, Aroclor 1254, Method: Suspension/plate
  mutagenic call: active; positive

## NC(=O)C1(N2CCCCC2)CCN(CCCC(=O)c2ccc(F)cc2)CC1
End Point: IN VITRO CHROMOSOMAL ABERRATIONS, Test System: HUMAN LYMPHOCYTES, Metabolic Activation: NONE
  mutagenic call: inactive; negative

## CC(=O)c1cccc2c1OC1(C)OOC21C (centres undefined)
Test System: AMES SALMONELLA TYPHIMURIUM, Strain/Indicator: TA100, Metabolic Activation: NONE, Method: PREINCUBATION
  mutagenic call: active; positive

## Nc1nc2c(ncn2[C@@H]2O[C@H](COP(=O)(O)O)[C@@H](O)[C@H]2O)c(=O)[nH]1
Test System: AMES SALMONELLA TYPHIMURIUM, Strain/Indicator: TA97, Metabolic Activation: NONE, Method: PREINCUBATION
  mutagenic call: inactive; negative
Test System: AMES SALMONELLA TYPHIMURIUM, Strain/Indicator: TA97, Metabolic Activation: RAT, LIVER, S-9, AROCLOR 1254, Method: PREINCUBATION
  mutagenic call: inactive; negative
Test System: AMES SALMONELLA TYPHIMURIUM, Strain/Indicator: TA102, Metabolic Activation: NONE, Method: PREINCUBATION
  mutagenic call: inactive; negative
Test System: AMES SALMONELLA TYPHIMURIUM, Strain/Indicator: TA102, Metabolic Activation: RAT, LIVER, S-9, AROCLOR 1254, Method: PREINCUBATION
  mutagenic call: inactive; negative

## Cc1nc2ccc(NCCN(C)C)c3c(=O)c4cc(O)ccc4n1c23
Test System: CHINESE HAMSTER V-79, Strain/Indicator: V-79 (HGPRT)/6-THIOGUANINE, Metabolic Activation: NONE
  mutagenic call: active; positive

## c1cc[n+]2c(c1)-c1cccc[n+]1CC2
Test System: AMES SALMONELLA TYPHIMURIUM, Strain/Indicator: TA102, Metabolic Activation: NONE, Method: STANDARD PLATE
  mutagenic call: inactive; negative
Test System: AMES SALMONELLA TYPHIMURIUM, Strain/Indicator: TA2638, Metabolic Activation: NONE, Method: STANDARD PLATE
  mutagenic call: inactive; negative
Test System: E. COLI, Strain/Indicator: WP2 (PKM101), Metabolic Activation: NONE, Method: STANDARD PLATE
  mutagenic call: inactive; negative
Test System: E. COLI, Strain/Indicator: WP2 UVRA (PKM101), Metabolic Activation: NONE, Method: STANDARD PLATE
  mutagenic call: inactive; negative

## C[n+]1c2cc(N)ccc2cc2ccc(N)cc21
Test System: AMES SALMONELLA TYPHIMURIUM, Strain/Indicator: TA1535, Metabolic Activation: NONE, Method: PREINCUBATION
  mutagenic call: inactive; negative
Test System: AMES SALMONELLA TYPHIMURIUM, Strain/Indicator: TA1535, Metabolic Activation: RAT, LIVER, S-9, TETRACHLOROBIPHENYL, Method: PREINCUBATION
  mutagenic call: inactive; negative
Test System: AMES SALMONELLA TYPHIMURIUM, Strain/Indicator: TA1537, Metabolic Activation: NONE, Method: PREINCUBATION
  mutagenic call: active; positive
Test System: AMES SALMONELLA TYPHIMURIUM, Strain/Indicator: TA1537, Metabolic Activation: RAT, LIVER, S-9, TETRACHLOROBIPHENYL, Method: PREINCUBATION
  mutagenic call: active; positive
Test System: AMES SALMONELLA TYPHIMURIUM, Strain/Indicator: TA1538, Metabolic Activation: NONE, Method: PREINCUBATION
  mutagenic call: inactive; negative
Test System: AMES SALMONELLA TYPHIMURIUM, Strain/Indicator: TA1538, Metabolic Activation: RAT, LIVER, S-9, TETRACHLOROBIPHENYL, Method: PREINCUBATION
  mutagenic call: active; positive
Test System: AMES SALMONELLA TYPHIMURIUM, Strain/Indicator: TA1977, Metabolic Activation: NONE, Method: PREINCUBATION
  mutagenic call: active; positive
Test System: AMES SALMONELLA TYPHIMURIUM, Strain/Indicator: TA1977, Metabolic Activation: RAT, LIVER, S-9, TETRACHLOROBIPHENYL, Method: PREINCUBATION
  mutagenic call: active; positive
Test System: AMES SALMONELLA TYPHIMURIUM, Strain/Indicator: TA1978, Metabolic Activation: NONE, Method: PREINCUBATION
  mutagenic call: inactive; negative
Test System: AMES SALMONELLA TYPHIMURIUM, Strain/Indicator: TA1978, Metabolic Activation: RAT, LIVER, S-9, TETRACHLOROBIPHENYL, Method: PREINCUBATION
  mutagenic call: inactive; negative
